Measurements as given in US20100249234A1, “METHODS OF REDUCING VIRULENCE IN BACTERIA” (UWM RESEARCH FOUNDATION, INC., priority 2007, published 2010).

How the values were obtained:
Format in all cases: cell-based, Dickeya dadantii 3937 (Ech3937)
hrpA promoter = hrpA promoter activity, GFP reporter plasmid phrpA, flow cytometry (FACS); conditions: for GFP intensity (Mean Fluorescence Intensity) of Ech3937 (phrpA): MM + 0.1 mM PCA (MMPCA); for expression of hrpA, GFP intensity (Mean Fluorescence Intensity), Ech3937 carrying phrpA: MM + 0.1 mM compound; for GFP intensity (Mean Fluorescence Intensity) of WPP96 (phrpA): hrpL mutant WPP96; for GFP intensity (Mean Fluorescence Intensity) of WPP96 (phrpA) / GFP intensity (Mean Fluorescence Intensity) of WPP90 (phrpA) / GFP intensity (Mean Fluorescence Intensity) of WPP67 (phrpA) / GFP intensity (Mean Fluorescence Intensity) of WPP92 (phrpA): MM + 0.1 mM PCA; for GFP intensity (Mean Fluorescence Intensity) of WPP90 (phrpA): hrpS mutant WPP90; for GFP intensity (Mean Fluorescence Intensity) of WPP67 (phrpA): hrpX mutant WPP67; for GFP intensity (Mean Fluorescence Intensity) of WPP92 (phrpA): hrpY mutant WPP92
Description: FACS analysis of promoter activity of dspE, hrpA, hrpL, hrpN, and hrpS was carried out as described (Peng et al., 2006). Briefly, the wild-type Ech3937 and the mutant strains carrying the promoter reporter plasmid were grown on LB broth at 28° C. overnight and transferred to appropriate media. For FACS analysis, samples were collected by centrifugation, washed with 1× phosphate buffer saline (PBS) at 13,000 rpm for 1 min, and re-suspended in 1×PBS to ca 10^6 CFU/ml prior to being run in a FACS Calibur flow cytometer (BD Biosciences, CA). Three replicates were performed for each treatment.
To identify potential compounds that repress activation of T3SS, analogs and isomers of TCA and intermediates of salicylic acid and phenypropanoid biosynthesis pathways in plants were further screened for their effect on Ech3937 hrpA expression by flow cytometry (Table 9). A green fluorescent protein (GFP) reporter plasmid phrpA (pProbe-AT derivative with PCR fragment containing hrpA promoter region) was constructed, resulting in a transcriptional fusion of hrpA promoter with GFP gene. Bacterial cells containing phrpA plasmid were grown in MM supplemented with 0.1 mM of each compound. GFP intensity, which is a measurement of hrpA promoter activity, was measured by flow cytometry.

hrpN promoter = hrpN promoter activity, GFP reporter plasmid phrpN, flow cytometry (FACS); conditions: for GFP intensity (Mean Fluorescence Intensity) of Ech3937 (phrpN): MM + 0.1 mM PCA (MMPCA); for GFP intensity (Mean Fluorescence Intensity) of WPP96 (phrpN): hrpL mutant WPP96; for GFP intensity (Mean Fluorescence Intensity) of WPP96 (phrpN) / GFP intensity (Mean Fluorescence Intensity) of WPP90 (phrpN) / GFP intensity (Mean Fluorescence Intensity) of WPP67 (phrpN) / GFP intensity (Mean Fluorescence Intensity) of WPP92 (phrpN): MM + 0.1 mM PCA; for GFP intensity (Mean Fluorescence Intensity) of WPP90 (phrpN): hrpS mutant WPP90; for GFP intensity (Mean Fluorescence Intensity) of WPP67 (phrpN): hrpX mutant WPP67; for GFP intensity (Mean Fluorescence Intensity) of WPP92 (phrpN): hrpY mutant WPP92
hrpA mRNA = assay: qRT-PCR relative mRNA level of hrpA; conditions: 0.1 mM PCA, P=0.001 (FIG. 14)
Description: (§1) Bacterial strains were grown in MM. Total RNA from the bacterial cells was isolated by using the TRI reagent method (Sigma, Mo.) and treated with Turbo DNA-free DNase kits (Ambion, TX) as described (Peng et al., 2006). An iScript cDNA Synthesis Kit (Bio-Rad, CA) was used to synthesize cDNA from 0.5 μg of treated total RNA. The Real Master Mix (Eppendorf, Westbury, N.Y.) was used for qRT-PCR reaction to quantify the cDNA level of target genes in different samples. The rplU was used as the endogenous control for data analysis. qRT-PCR data were analyzed using Relative Expression Software Tool as described (Pfaffl, M. W., Horgan, G. W., and Dempfle, L. (2002) Relative expression software tool (REST) for group-wise comparison and statistical analysis of relative expression results in real-time PCR. Nucleic Acids Res 30:e36.).

dspE mRNA = assay: qRT-PCR relative mRNA level of dspE; conditions: 0.1 mM PCA, P=0.001 (FIG. 14)
Description: as §1

Ech3937 = assay: Growth of Ech3937 in MM supplemented with compound; conditions: PCA 0.001 to 0.1 mM in MM (FIGS. 16A, 16B)
From the text: Phenolic compounds constitute an important class of organic substances produced by plants. The phenolic compound SA is a signaling molecule that plays a role in host defenses. OCA and TCA are the biosynthetic precursors of SA and are also reported to induce the expression of defense-related genes in plants. OCA, TCA, and SA were examined to elucidate their effects on the expression of T3SS genes. The expression of the T3SS gene hrpN was examined in MM and MM supplemented with OCA, TCA, and SA, at concentrations of 0.05, 0.1, and 0.2 mM, respectively. FIGS. 2A and 2B show the promoter activities of hrpN in Dickeya dadantii 3937 (Ech3937) grown in MM and MM supplemented with 0.05, 0.1, and 0.2 mM OCA, TCA, and SA at 12 h (FIG. 2A) and 24 h (FIG. 2B) post-inoculation. GFP intensity was determined on gated populations of bacterial cells by flow cytometry and analyzed with the Cell Quest software (BD Biosciences, San Jose, Calif.). The growth of Ech3937 in MM supplemented with different concentrations of OCA, TCA and SA was recorded. Compared with MM alone, the average GFP fluorescence intensity of bacterial cells of Ech3937 (phrpN) was increased approximately 4-fold when 0.05 mM of OCA and TCA were added to the medium (FIGS. 2A, 2B).
The expression of the T3SS gene hrpA was further examined in MM and MM supplemented with PCA at concentrations of 0.001, 0.005, 0.01, 0.05 and 0.1 mM respectively. FIGS. 16A and 16B show the promoter activities of hrpA in Dickeya dadantii 3937 (Ech3937) grown in minimum medium (MM) and MM supplemented with different amount of p-coumaric acid (PCA) at 12 h (FIG. 16A) and 24 h (FIG. 16B) post-inoculation. GFP intensity was determined on gated populations of bacterial cells by flow cytometry and analyzed with the Cell Quest software (BD Biosciences, San Jose, Calif.). The growth of Ech3937 in MM supplemented with different concentrations of PCA was recorded. Compared with MM alone, the average GFP fluorescence intensity of bacterial cells of Ech3937 (phrpA) was reduced more than 4-fold when 0.05 and 0.1 mM of PCA were added to the medium (FIGS. 16A, 16B).

hrpS mRNA = assay: qRT-PCR relative mRNA level of hrpS; conditions: MM supplemented with PCA vs MM alone (normalized to 1), P=0.001
Description: as §1

hrpL mRNA = assay: qRT-PCR relative mRNA level of hrpL; conditions: MM supplemented with PCA vs MM alone (normalized to 1), P=0.001
Description: as §1

O=C(O)/C=C/c1ccc(O)cc1 [PCA, p-coumaric acid]
reduction of average GFP fluorescence intensity of Ech3937 (phrpA) compared with MM alone (hrpA promoter; 0.05 and 0.1 mM of PCA, 12 h and 24 h (FIGS. 16A, 16B)): more than 4 fold | GFP intensity (Mean Fluorescence Intensity) of Ech3937 (phrpA) (hrpA promoter; 12 h (Table 10)): 10.3 ± 1.3 | GFP intensity (Mean Fluorescence Intensity) of Ech3937 (phrpA) (hrpA promoter; 12 h (Table 11)): 9.2 ± 0.4 | GFP intensity (Mean Fluorescence Intensity) of Ech3937 (phrpA) (hrpA promoter; 24 h (Table 10)): 18.5 ± 3.5 | GFP intensity (Mean Fluorescence Intensity) of Ech3937 (phrpA) (hrpA promoter; 24 h (Table 11)): 12.7 ± 0.3 | effect on expression of hrpA (screen result) (hrpA promoter; MM + 0.1 mM compound (Table 9)): inhibitors of the expression of hrpA | expression of hrpA, GFP intensity (Mean Fluorescence Intensity), Ech3937 carrying phrpA (hrpA promoter; 6 h (Table 9)): 6.9 ± 0.1 | expression of hrpA, GFP intensity (Mean Fluorescence Intensity), Ech3937 carrying phrpA (hrpA promoter; 12 h (Table 9)): 10.2 ± 0.4 | expression of hrpA, GFP intensity (Mean Fluorescence Intensity), Ech3937 carrying phrpA (hrpA promoter; 24 h (Table 9)): 11.4 ± 1.0 | reduction of GFP fluorescence intensity of Ech3937 (phrpA) (hrpA promoter; PCA at 0.001, 0.005 and 0.01 (FIGS. 16A, 16B)): did not result in substantial reduction | GFP intensity (Mean Fluorescence Intensity) of WPP96 (phrpA) (hrpA promoter; 12 h): 7.3 ± 0.1 | GFP intensity (Mean Fluorescence Intensity) of WPP96 (phrpA) (hrpA promoter; 24 h): 9.0 ± 1.6 | GFP intensity (Mean Fluorescence Intensity) of WPP90 (phrpA) (hrpA promoter; 12 h): 7.9 ± 0.2 | GFP intensity (Mean Fluorescence Intensity) of WPP90 (phrpA) (hrpA promoter; 24 h): 9.3 ± 0.2 | GFP intensity (Mean Fluorescence Intensity) of WPP67 (phrpA) (hrpA promoter; 12 h): 7.9 ± 0.2 | GFP intensity (Mean Fluorescence Intensity) of WPP67 (phrpA) (hrpA promoter; 24 h): 9.0 ± 1.3 | GFP intensity (Mean Fluorescence Intensity) of WPP92 (phrpA) (hrpA promoter; 12 h): 6.9 ± 0.1 | GFP intensity (Mean Fluorescence Intensity) of WPP92 (phrpA) (hrpA promoter; 24 h): 9.4 ± 0.7 | GFP intensity (Mean Fluorescence Intensity) of Ech3937 (phrpN) (hrpN promoter; 12 h (Table 10)): 6.8 ± 0.8 | GFP intensity (Mean Fluorescence Intensity) of Ech3937 (phrpN) (hrpN promoter; 12 h (Table 11)): 4.3 ± 0.1 | GFP intensity (Mean Fluorescence Intensity) of Ech3937 (phrpN) (hrpN promoter; 24 h (Table 10)): 11.3 ± 3.4 | GFP intensity (Mean Fluorescence Intensity) of Ech3937 (phrpN) (hrpN promoter; 24 h (Table 11)): 8.8 ± 2.1 | promoter activity (expression) of hrpN compared with MM alone (hrpN promoter; MM supplemented with 0.1 mM PCA): reduced expression | GFP intensity (Mean Fluorescence Intensity) of WPP96 (phrpN) (hrpN promoter; 12 h): 3.0 ± 0.0 | GFP intensity (Mean Fluorescence Intensity) of WPP96 (phrpN) (hrpN promoter; 24 h): 4.3 ± 0.1 | GFP intensity (Mean Fluorescence Intensity) of WPP90 (phrpN) (hrpN promoter; 12 h): 3.5 ± 0.1 | GFP intensity (Mean Fluorescence Intensity) of WPP90 (phrpN) (hrpN promoter; 24 h): 5.1 ± 0.1 | GFP intensity (Mean Fluorescence Intensity) of WPP67 (phrpN) (hrpN promoter; 12 h): 3.5 ± 0.2 | GFP intensity (Mean Fluorescence Intensity) of WPP67 (phrpN) (hrpN promoter; 24 h): 6.3 ± 0.7 | GFP intensity (Mean Fluorescence Intensity) of WPP92 (phrpN) (hrpN promoter; 12 h): 3.6 ± 0.1 | GFP intensity (Mean Fluorescence Intensity) of WPP92 (phrpN) (hrpN promoter; 24 h): 5.5 ± 0.3 | hrpA mRNA compared with MM alone (normalized to 1), qRT-PCR (hrpA mRNA): significantly lower amount of mRNA | dspE mRNA compared with MM alone (normalized to 1), qRT-PCR (dspE mRNA): significantly lower amount of mRNA | bacterial growth of Ech3937 in MM with PCA (Ech3937): Inhibition of bacterial growth was not observed | hrpS mRNA relative expression ratio (hrpS mRNA): 0.223 | hrpL mRNA relative expression ratio (hrpL mRNA): 0.039
